In US5958907A, “Pharmaceutical compositions and uses of inorganic pyrophosphates” (The University of Iowa Research Foundation, priority 1997, dated 1999):
Where two headings read alike, the source gives them in different places.

Legend:
[1] = test system: purinergic receptors in the airway epithelium; details: in vitro; cited from earlier work
[2] = target: T1, wild-type CFTR (Homo sapiens, UniProt P13569); assay: Single channel excised inside-out patch-clamp and burst analysis, wild-type CFTR; type: cell-based; details: for frequency of prolonged bursts compared with PPi / bursts of activity: PPi analogs at 5 mM; for bursts of activity: C127 cell patches with a single active channel
T1 construct: excised inside-out patches with ATP and PKA

[3] = cited from earlier work
[4] = test system: sodium channels; details: aerosolized, initial results; cited from earlier work
[5] = test system: CFTR; details: cited from earlier work
[6] = test system: CFTR-ΔF508; details: 5 mM PPi, 75 nM PKA, 0.3 mM ATP
[7] = test system: human CFTR; details: [α-32P]8-N3ATP 30 αM, PPi in mM, 60 s UV irradiation; relative to control without PPi
Protocol: Photolabeling of membrane-associated CFTR was performed as previously described (Travis, S. M. et al. (1993) J. Biol. Chem. 268:15336-15339). […] Membranes were prepared by differential centrifugation and resuspended in 20 mM HEPES, pH 7.5, 50 mM NaCl, 3 mM MgSO4, with 2 μg/ml each of leupeptin, aprotinin, and pepstatin. Membrane-associated CFTR was phosphorylated prior to photolabeling by incubation with 100 nM PKA and 0.1 mM ATP in buffer containing 10 m MgCl2 and 50 mM 1,4-piperazine diethane sulfonic acid, pH 6.8 for 20 min at 30° C., then diluted in 12 volumes buffer containing 20 mM tris(hydroxymethyl)aminomethane, pH 7.5, 0.2 mM EGTA and 1 μM calyculin A. Membranes were collected by centrifugation and resuspended at a concentration of 2.5 mg protein/ml in the same buffer.
Photolabeling was performed by preincubating membranes (50 μg membrane protein/sample) on ice with [α-^32 P]8-N3ATP (30 αM, 6-12 Ci/mmol) and PPi (in mM). After 60 s UV irradiation, CFTR was solubilized and immunoprecipitated as described (Travis, S. M. et al. (1993) J. Biol. Chem. 268:15336-15339) using antibodies raised against the R domain (M13-1, 0.3 μg/sample) and against the C terminus (M1-4, 10 μg/sample). Immunocomplexes were analyzed by SDS-PAGE and incorporation of [α-^32 P]8-N3ATP was quantitated with an AMBIS radioanalytic imaging system (AMBIS Systems, Inc., San Diego, Calif.).

[8] = target: CFTR channel (Homo sapiens, UniProt P13569); details: 5 mM PPi
Protocol: Maximum likelihood analysis and kinetic modeling were performed as described (Winter, M. C. et al. (1994) Biophys. J. 66:1398-1403). Briefly, unfiltered single channel data were digitized on a microcomputer (Apple Macintosh, Apple Computer, Inc., Cupertine, Calif.) equipped with a multifunctional data acquisition board (NB-MIO-16) and LabVIEW 2 software (National Instruments, Austin, Tex.) at 5 kHz following filtering with an 8-pole Bessel filter (Frequency Devices Inc., Haverhill, Mass.) at a comer frequency of 1 kHz with subsequent digital filtering at 500 Hz. Previous work has shown that a linear three state model (C1 .rarw.→C2 .rarw.→O) best describes the kinetics of CFTR channel activity (Winter, M. C. et al. (1994) Biophys. J. 66:1398-1403). The Maple 5 symbolic algebra program (Waterloo Maple Software, Waterloo, Canada) was used to derive the open and closed time probability density functions for this model by solving the matrix equations in terms of the rate constants. The resulting equations were used in LabVIEW 2 to determine the set of rate constants which yielded the maximum likelihood for the open and closed times observed with different experimental interventions.
It has been previously shown that the activity of single phosphorylated CFTR channels can be described by a linear three state model (Winter, M. C. et al. (1994) Biophys. J. 66:1398-1403), and this model has been used to describe how ATP, ADP, and inorganic phosphate alter the rate constants which describe transitions between states (Carson, M. R. et al., 1994 Biophys. J (In Press); Winter, M. C. et al., 1994 Biophys. J. 66:1398-1403). […] The rate constants (β1, β2, α1, and α2) describe the rate of transition between each state.

[9] = test system: CFTR; details: artificial lipid bilayers; cited from earlier work
[10] = target: T2, CFTR Cl^- channel (Homo sapiens, UniProt P13569); details: external addition of 5 mM PPi, n=4
Protocol: To determine if inorganic pyrophosphate (PPi) would alter CFTR Cl^- channel activity, 5 mM PPi was added to an excised, inside-out membrane patch containing many CFTR channels which had been phosphorylated by PKA.

[11] = target: endogenous CFTR in the apical membrane of T-84 intestinal epithelial monolayers (Homo sapiens, UniProt P13569)
[12] = target: T2, CFTR Cl^- channel

Sequence of endogenous CFTR in the apical membrane of T-84 intestinal epithelial monolayers (P13569 whole entry): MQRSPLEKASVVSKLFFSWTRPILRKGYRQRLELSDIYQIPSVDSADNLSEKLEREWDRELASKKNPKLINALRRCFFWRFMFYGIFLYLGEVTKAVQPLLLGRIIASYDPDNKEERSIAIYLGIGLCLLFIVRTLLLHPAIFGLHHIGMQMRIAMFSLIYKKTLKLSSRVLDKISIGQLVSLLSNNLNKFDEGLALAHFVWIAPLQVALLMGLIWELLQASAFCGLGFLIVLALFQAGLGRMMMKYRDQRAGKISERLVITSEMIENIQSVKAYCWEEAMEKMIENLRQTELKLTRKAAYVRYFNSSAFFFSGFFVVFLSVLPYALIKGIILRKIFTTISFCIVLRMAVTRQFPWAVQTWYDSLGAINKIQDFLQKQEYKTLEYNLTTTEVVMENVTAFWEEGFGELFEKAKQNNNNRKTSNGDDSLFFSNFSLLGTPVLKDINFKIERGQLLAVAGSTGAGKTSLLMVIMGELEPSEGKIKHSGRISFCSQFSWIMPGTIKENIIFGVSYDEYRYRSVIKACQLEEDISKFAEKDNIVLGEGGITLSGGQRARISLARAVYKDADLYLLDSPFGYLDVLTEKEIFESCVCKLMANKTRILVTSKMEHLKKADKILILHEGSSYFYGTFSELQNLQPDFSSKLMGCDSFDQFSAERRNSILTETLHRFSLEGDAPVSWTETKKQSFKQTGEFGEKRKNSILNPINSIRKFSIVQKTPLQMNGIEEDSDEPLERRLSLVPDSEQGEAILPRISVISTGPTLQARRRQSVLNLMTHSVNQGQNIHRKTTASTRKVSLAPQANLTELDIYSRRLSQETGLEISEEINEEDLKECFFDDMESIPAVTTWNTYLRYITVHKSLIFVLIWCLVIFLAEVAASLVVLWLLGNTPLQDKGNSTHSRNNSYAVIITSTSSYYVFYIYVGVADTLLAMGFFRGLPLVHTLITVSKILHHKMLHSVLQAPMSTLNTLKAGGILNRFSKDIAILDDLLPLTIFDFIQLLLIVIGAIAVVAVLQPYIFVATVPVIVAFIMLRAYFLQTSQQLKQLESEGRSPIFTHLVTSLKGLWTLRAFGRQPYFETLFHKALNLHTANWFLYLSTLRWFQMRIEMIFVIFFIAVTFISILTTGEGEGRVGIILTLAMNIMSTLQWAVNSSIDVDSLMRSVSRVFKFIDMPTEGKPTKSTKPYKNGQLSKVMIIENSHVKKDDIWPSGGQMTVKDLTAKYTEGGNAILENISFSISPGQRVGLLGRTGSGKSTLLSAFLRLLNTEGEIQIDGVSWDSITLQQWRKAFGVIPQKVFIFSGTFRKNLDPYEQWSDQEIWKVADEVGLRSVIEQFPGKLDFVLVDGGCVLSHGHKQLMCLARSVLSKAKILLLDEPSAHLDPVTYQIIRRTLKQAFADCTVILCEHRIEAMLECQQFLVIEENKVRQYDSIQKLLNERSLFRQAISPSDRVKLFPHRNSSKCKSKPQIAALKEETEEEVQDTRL
Sequence of CFTR channel (P13569 whole entry): as above
T2 sequence (P13569 whole entry): as above
T1 sequence (P13569 whole entry): as above

O=c1ccn([C@@H]2O[C@H](COP(=O)(O)OP(=O)(O)OP(=O)(O)O)[C@@H](O)[C@H]2O)c(=O)[nH]1 [UTP]
chloride secretion [1]: can stimulate chloride secretion

CC(O)(P(=O)(O)O)P(=O)(O)O [etidronate, 1-hydroxyethylidenebisphosphonic acid, reference compound]
frequency of prolonged bursts compared with PPi ([2]; 75 nM PKA, 0.3 mM ATP): less frequent
bursts of activity ([2]; 75 nM PKA, 0.3 mM ATP): prolonged bursts of activity
efficacy in tumor-induced bone disease ([3]; 500 mg/day for 3 days): shown efficacy

O=P(O)(O)CP(=O)(O)O [PCP, Methylenediphosphonic acid]
frequency of prolonged bursts compared with PPi ([2]; 75 nM PKA, 0.3 mM ATP): less frequent
bursts of activity ([2]; 75 nM PKA, 0.3 mM ATP): prolonged bursts of activity
effects on Po and average burst duration (channel activity) ([2]; nonhydrolyzable PPi analogs): did not achieve statistical significance
maintenance of calcaemia after initial treatment ([3]; daily oral administration of 1600 mg): calcaemia can be maintained
efficacy in tumor-induced bone disease ([3]; one slow infusion of 600 mg): shown efficacy

N=C(N)NC(=O)c1nc(Cl)c(N)nc1N [amiloride]
rate of disease progression, as measured by lung function tests [4]: slight change in the rate of disease progression
safety [4]: safe

Nc1ncnc2c1ncn2[C@@H]1O[C@H](COP(=O)(O)OP(=O)(O)NP(=O)(O)O)[C@@H](O)[C@H]1O [AMP-PNP]
binding affinity relative to ATP [5]: one twentieth

Nc1ncnc2c1ncn2[C@@H]1O[C@H](COP(=O)(O)OP(=O)(O)OP(=O)(O)O)[C@@H](O)[C@H]1O [ATP, Adenosine 5'-triphosphate]
chloride secretion [1]: can stimulate chloride secretion

O=P([O-])([O-])OP(=O)([O-])[O-].[Na+].[Na+].[Na+].[Na+] [PPi, Sodium pyrophosphate]
Po ([6]; before: 0.07±0.01, n=3): 0.21±0.022
average burst duration ([6]; before: 125±19 ms, n=3): 1023 ± 330 ms
increase of Po ([6]; n=3): three-fold
increase of average burst duration ([6]; n=3): eight-fold
stimulation of ΔF508 activity ([6]; n=5): three-fold
8-N3 ATP labeling of CFTR [7]: concentration-dependent increase
decrease of rate constant α2 ([8]; 0.3 mM ATP, 75 nM PKA): 37%
rate constant β1 (transition from long closed state C1 to bursting state) ([8]; 0.3 mM ATP, 75 nM PKA): increased β1
rate constant β2 ([8]; 0.3 mM ATP, 75 nM PKA): did not alter β2
rate constant α1 (rate of leaving the bursting mode) ([8]; 0.3 mM ATP, 75 nM PKA, four single-channel patches): six-fold decrease
change in Po within a burst ([8]; n=4, not significantly different): < 5%
duration of the long closed states between bursts of activity ([2]; 5 mM PPi, 0.3 mM ATP, 75 nM PKA): appeared to decrease the duration of the long closed states
open state probability (Po) ([2]; 5 mM PPi, 0.3 mM ATP, 75 nM PKA, before: 0.39±0.021, n=8, p<0.001): 0.81±0.03
mean burst duration ([2]; 5 mM PPi, 0.3 mM ATP, 75 nM PKA, before: 175±6 ms, n=8, p<0.001): 1568 ± 219 ms
single channel current amplitude ([2]; after addition of 5 mM PPi, 0.3 mM ATP, 75 nM PKA, before: 0.90±0.05, n=8, p=0.812): 0.91±0.02 pA
duration of bursts [9]: prolonged the duration of bursts
whole-cell currents [10]: did not alter currents
apical membrane Cl- current ([11]; 1 or 5 mM PPi added to basolateral solution after cAMP, 1 mM ATP): further increase in current
apical membrane Cl- current ([11]; 1 or 5 mM PPi in the absence of cAMP): did not increase current above baseline levels
time for current to decrease to baseline levels after removal of cAMP ([11]; in the continued presence of PPi): ≤ 3 min
Cl- current ([12]; 5 mM PPi in the presence of 0.3 mM ATP, channels phosphorylated by PKA, cytosolic side): reversible increase
Cl- current ([12]; PPi in the absence of ATP): did not stimulate current
EC50 ([12]; read-out: apparent EC50 of stimulation of Cl- current, in the presence of ATP, PKA-phosphorylated channels): ~500 µM
